Experimental data published in patent US10047084B2, “Imidazolone derivatives, pharmaceutical compositions and uses thereof” (BEIJING FORELANDPHARMA CO. LTD., priority 2013, dated 2018).
pEC50, pIC50: −log10 of the molar value.

Tests used:
[1] = target: mTOR kinase (Homo sapiens (Human), UniProt P42345); assay: mTOR kinase activity assay (TR-FRET, GFP-4EBP1 substrate); assay type: biochemical; conditions: read-out: Enzyme (mTOR) IC50
Method: 1. mTOR Kinase Activity Assay: The inhibition of the mTOR protein kinase activity by the compounds was determined by the enzymatic activity assay in vitro. The detection kit supplied by Invitrogen was used to detect the inhibition of the activity of the mTOR […]. The principle of the assay was as follows: mTOR kinase, fluorescein-labeled substrate and ATP were mixed, and after the reaction, EDTA and terbium-labeled first antibody were added. During the chemical reaction process of the mTOR kinase, the antibody recognized the phosphorylated and fluorescein-labeled substrate, and then the “time-resolved fluorescence resonance energy transfer” (TR-FRET) effect was enhanced. TR-FRET effect was calculated as the ratio of signals from the acceptor fluorescein to signals from the donor terbium. The amount of the antibody bound to the tracer was directly proportional to the amount of the phosphorylated substrate after the reaction. In this way, the kinase activity can be detected. In this assay, the substrate of the mTOR kinase was green fluorescent protein-coupled 4E binding protein 1 (GFP-4EBP1).
1.1 Materials and Instruments:
4-Hydroxyethylpiperazine ethanesulfonic acid (HEPES, Sigma, Cat# SH3375), ethylene glycol-bis-(2-aminoethylether)-tetraacetic acid (EGTA, Sigma, Cat# E3889), manganese chloride (MnCl2, Sigma, Cat# M1787), Tween-20 (Tween-20, Amresco), 1,4-dithiothreitol (DTT, Merck, CB233155),

[2] = system: PC-3; assay: CTG cell survival assay, PC-3; assay type: cell-based; conditions: Homo sapiens, PC-3 cells
Outline: (§1)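 Cells were exposed to compounds in a 3-fold dilution series, with a top final concentration of 10 uM in 0.1% DMSO. Viable cells were quantified by CellTiter-Glo ATP luminescence.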

[3] = system: MV-4-11; assay: CTG cell survival assay, MV-4-11; assay type: cell-based; conditions: Homo sapiens, MV4-11, MV-4-11 cells
Outline: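 Cells grown in RPMI 1640 with 10% FBS were plated and cultured 24 h at 37 °C, 5% CO2, then treated with compound diluted from 10 mM DMSO stocks. Viable cells were quantified as ATP by CellTiter-Glo luminescence.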

[4] = system: SK-BR3/BT474; assay: CTG cell survival assay, SK-BR3/BT474; assay type: cell-based; conditions: SK-BR3/BT474 cells
Outline: as §1

Chain of mTOR kinase (P42345 1360-2549): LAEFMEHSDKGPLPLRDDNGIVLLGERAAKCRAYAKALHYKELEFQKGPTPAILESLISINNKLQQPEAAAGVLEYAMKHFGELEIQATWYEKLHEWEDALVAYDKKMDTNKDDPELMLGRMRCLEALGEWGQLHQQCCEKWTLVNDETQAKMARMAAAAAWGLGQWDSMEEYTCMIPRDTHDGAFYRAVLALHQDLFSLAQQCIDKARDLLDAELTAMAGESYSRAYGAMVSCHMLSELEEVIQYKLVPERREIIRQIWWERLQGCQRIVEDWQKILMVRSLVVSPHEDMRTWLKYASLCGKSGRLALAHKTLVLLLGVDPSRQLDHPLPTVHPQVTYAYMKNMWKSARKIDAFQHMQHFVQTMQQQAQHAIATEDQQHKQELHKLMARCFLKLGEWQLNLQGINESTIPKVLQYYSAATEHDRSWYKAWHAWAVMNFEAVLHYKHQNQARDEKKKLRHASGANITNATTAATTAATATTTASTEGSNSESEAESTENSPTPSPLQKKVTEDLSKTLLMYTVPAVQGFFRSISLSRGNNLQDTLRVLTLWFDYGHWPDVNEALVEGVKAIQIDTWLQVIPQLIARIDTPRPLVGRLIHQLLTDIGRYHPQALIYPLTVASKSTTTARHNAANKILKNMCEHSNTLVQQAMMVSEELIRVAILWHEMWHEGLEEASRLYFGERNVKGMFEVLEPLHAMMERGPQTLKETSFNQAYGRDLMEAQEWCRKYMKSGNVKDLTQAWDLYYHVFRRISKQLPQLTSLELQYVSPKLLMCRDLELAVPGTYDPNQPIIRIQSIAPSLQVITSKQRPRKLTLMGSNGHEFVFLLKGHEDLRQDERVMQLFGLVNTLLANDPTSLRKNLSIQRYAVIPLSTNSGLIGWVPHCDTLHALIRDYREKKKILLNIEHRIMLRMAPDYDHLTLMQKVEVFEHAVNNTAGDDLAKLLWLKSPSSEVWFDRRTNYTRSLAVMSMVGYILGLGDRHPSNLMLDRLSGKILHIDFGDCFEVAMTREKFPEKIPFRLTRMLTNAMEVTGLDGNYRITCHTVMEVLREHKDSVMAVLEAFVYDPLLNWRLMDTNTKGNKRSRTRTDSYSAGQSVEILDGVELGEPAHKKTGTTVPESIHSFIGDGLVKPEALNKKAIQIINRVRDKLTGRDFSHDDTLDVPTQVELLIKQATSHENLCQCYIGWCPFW

| SMILES | pIC50 [1] | pEC50 [2] | pEC50 [3] | pEC50 [4] |
| --- | --- | --- | --- | --- |
| Cn1cc(-c2ccc(-c3ccc4ncc5c(c4c3)n(C3CCN(S(C)(=O)=O)C3)c(=O)n5C)cn2)cn1 (stereo not shown) [Example 6, 3-methyl-8-(6-(1-methyl-1H-pyrazol-4-yl)pyridin-3-yl)-1-(1-(methanesulfonyl)pyrrolidin-3-yl)-1H-imidazo[4,5-c]quinolin-2 (3H)-one] | > 8.00 | > 7.30 | > 6.70 | > 7.30 |
| C[C@H](O)C(=O)N1CCCC(n2c(=O)n(C)c3cnc4ccc(-c5ccc(-c6cnn(C)c6)nc5)cc4c32)C1 (stereo partly drawn) [Example 4, 1-(1-((S)-2-hydroxypropionyl)piperidin-3-yl)-3-methyl-8-(6-(1-methyl-1H-pyrazol-4-yl)pyridin-3-yl)-1H-imidazo[4,5-c]quinolin-2(3H)-one] | 7.00 to 8.00 | > 6.70 | > 6.30 | > 6.30 |
| COc1ncc(-c2ccc3ncc4c(c3c2)n([C@H]2CC[C@@H](O)CC2)c(=O)n4C)cc1C [Example 20, 1-((1s,4s)-4-hydroxycyclohexyl)-8-(6-methoxyl-5-methylpyridin-3-yl)-3-methyl-1H-imidazo[4,5-c]quinolin-2(3H)-one] | 7.00 to 8.00 | > 6.70 | > 6.70 | > 6.30 |
| CCN1CCC(n2c(=O)n(C)c3cnc4ccc(-c5ccc(-c6cnn(C)c6)nc5)cc4c32)C1 (stereo not shown) [Example 10, 1-(1-ethylpyrrolidin-3-yl)-3-methyl-8-(6-(1-methyl-1H-pyrazol-4-yl)pyridin-3-yl)-1H-imidazo[4,5-c]quinolin-2(3H)-one] | 6.00 to 7.00 | > 6.70 | > 6.00 | > 6.00 |
| C[C@@H](O)C(=O)N1CCCC(n2c(=O)n(C)c3cnc4ccc(-c5ccc(-c6cnn(C)c6)nc5)cc4c32)C1 (stereo partly drawn) [Example 5, 1-(1-((R)-2-hydroxypropionyl)piperidin-3-yl)-3-methyl-8-(6-(1-methyl-1H-pyrazol-4-yl)pyridin-3-yl)-1H-imidazo[4,5-c]quinolin-2(3H)-one] | > 8.00 | > 6.30 | > 6.30 | > 6.70 |
| COc1ncc(-c2ccc3ncc4c(c3c2)n([C@H]2CC[C@H](O)CC2)c(=O)n4C)cc1C [Example 24, 1-((1r,4r)-4-hydroxycyclohexyl)-8-(6-methoxyl-5-methylpyridin-3-yl)-3-methyl-1H-imidazo[4,5-c]quinolin-2(3H)-one] | 7.00 to 8.00 | > 6.70 | > 6.30 | > 6.30 |
| Cc1ccc(-c2ccc3ncc4c(c3c2)n([C@H]2CC[C@@H](O)CC2)c(=O)n4C)cn1 [Example 22, 1-((1s,4s)-4-hydroxycyclohexyl)-3-methyl-8-(6-methylpyridin-3-yl)-1H-imidazo[4,5-c]quinolin-2(3H)-one] | 7.00 to 8.00 | > 6.70 | > 6.70 | > 6.70 |
| [2H]C([2H])([2H])n1c(=O)n(C2CCCN(S(C)(=O)=O)C2)c2c3cc(-c4ccc(-c5cnn(C)c5)nc4)ccc3ncc21 (stereo not shown) [Example 36, 3-deuteromethyl-8-(6-(1-methyl-1H-pyrazol-4-yl)pyridin-3-yl)-1-(1-(methanesulfonyl)piperidin-3-yl)-1H-imidazo[4,5-c]quinolin-2(3H)-one] | > 8.00 | – | > 6.70 | > 6.30 |
| Cn1c(=O)n([C@H]2CCN(S(C)(=O)=O)C2)c2c3cc(-c4ccc(-c5ccccc5)nc4)ccc3ncc21 [Example 30, (S)-3-methyl-1-(1-(methanesulfonyl)pyrrolidin-3-yl)-8-(6-phenylpyridin-3-yl)-1H-imidazo[4,5-c]quinolin-2(3H)-one] | > 8.00 | – | > 7.00 | > 7.00 |
| Cn1cc(-c2ccc(-c3ccc4ncc5c(c4n3)n(C3CCCN(S(C)(=O)=O)C3)c(=O)n5C)cn2)cn1 (stereo not shown) [Example 37, 3-methyl-8-(6-(1-methyl-1H-pyrazol-4-yl)pyridin-3-yl)-1-(1-(methanesulfonyl)piperidin-3-yl)-1H-imidazo[4,5-c][1,5]naphthyridin-2(3H)-one] | > 8.00 | – | > 7.30 | > 7.30 |
